Here are results for 16 compounds from patent US11084800B2 (Achillion Pharmaceuticals, Inc., priority 2017, dated 2021).

The term IC50 denotes the point on the concentration scale where inhibition reaches its midpoint.

For the experiment, the target named is Human Factor D (Homo sapiens (Human), UniProt P00746). In words: Human Factor D Assay. Type of experiment: biochemical. Particulars: Table 6; Factor D 80 nM, substrate Z-L-Lys-SBz; read-out: IC50. Put shortly:
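Serum-purified Factor D (80 nM final) preincubated 5 min at room temperature with compound in 50 mM Tris, 1 M NaCl, pH 7.5. Z-L-Lys-SBz and DTNB added at 100 μM each; A405 followed every 30 s for 30 min. IC50 from nonlinear regression of rates versus concentration.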

Structures are written as SMILES.

Chain of Human Factor D (P00746 26-253): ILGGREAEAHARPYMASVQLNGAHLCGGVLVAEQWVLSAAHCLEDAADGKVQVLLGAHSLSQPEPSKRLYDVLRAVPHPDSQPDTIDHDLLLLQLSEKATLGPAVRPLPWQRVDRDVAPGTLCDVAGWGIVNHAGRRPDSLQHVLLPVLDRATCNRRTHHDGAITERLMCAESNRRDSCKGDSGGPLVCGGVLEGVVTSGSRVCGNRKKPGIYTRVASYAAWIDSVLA

With `CC(=O)c1nn(CC(=O)N2[C@H](C(=O)Nc3nc(Br)ccc3C)C[C@@]3(C)C[C@@H]23)c2ccc(-c3cnc(C)[n+]([O-])c3)cc12` [Compound 64, 5-(3-acetyl-1-(2-((1R,3S,5R)-3-((6-bromo-3-methylpyridin-2-yl)carbamoyl)-5-methyl-2-azabicyclo[3.1.0]hexan-2-yl)-2-oxoethyl)-1H-indazol-5-yl)-2-methylpyrimidine 1-oxide], the IC50 is less than 1000 nM.
The result for `CC(=O)c1nn(CC(=O)N2[C@H](C(=O)Nc3nc(Br)ccc3C)C[C@@]3(CO)C[C@@H]23)c2ccc(-c3cnc(C)nc3)cc12` [Compound 65, (1R,3S,5S)-2-(2-(3-acetyl-5-(2-methylpyrimidin-5-yl)-1H-indazol-1-yl)acetyl)-N-(6-bromo-3-methylpyridin-2-yl)-5-(hydroxymethyl)-2-azabicyclo[3.1.0]hexane-3-carboxamide] reads less than 1000 nM; that for `CC(=O)c1nn(CC(=O)N2C[C@@](F)(CF)C[C@H]2C(=O)Nc2nc(Br)ccc2C)c2c(C)cc(-c3cnc(C)nc3)cc12` [Compound 66, (2S,4R)-1-(2-(3-Acetyl-7-methyl-5-(2-methylpyrimidin-5-yl)-1H-indazol-1-yl)acetyl)-N-(6-bromo-3-methylpyridin-2-yl)-4-fluoro-4-(fluoromethyl)pyrrolidine-2-carboxamide], less than 1000 nM.
For `CC(=O)c1nn(CC(=O)N2[C@H](C(=O)Nc3nc(Br)ccc3C)C[C@@]3(CN4CC5(CCC5)C4)C[C@@H]23)c2ccc(-c3cnc(C)nc3)cc12` [Compound 67, (1R,3S,5R)-5-(2-azaspiro[3.3]heptan-2-ylmethyl)-2-(2-(3-acetyl-5-(2-methylpyrimidin-5-yl)-1H-indazol-1-yl)acetyl)-N-(6-bromo-3-methylpyridin-2-yl)-2-azabicyclo[3.1.0]hexane-3-carboxamide], the IC50 was less than 1000 nM.
As to `CC(=O)c1nn(CC(=O)N2[C@H]3C[C@@]3(CN3CC4(CCC4)C3)C[C@H]2C(=O)Nc2nc(Br)ccc2C)c2ccc(-c3cnc(C)nc3)cc12` [Compound 68], the IC50 was less than 1000 nM.
On to `CC(=O)c1nn(CC(=O)N2[C@H](C(=O)Nc3nc(Br)ccc3C)C[C@@]3(CN4CCN(C)CC4)C[C@@H]23)c2c(C)cc(-c3cnc(C)nc3)cc12` [Compound 69, (1R,3S,5R)-2-(2-(3-Acetyl-7-methyl-5-(2-methylpyrimidin-5-yl)-1H-indazol-1-yl)acetyl)-N-(6-bromo-3-methylpyridin-2-yl)-5-((4-methylpiperazin-1-yl)methyl)-2-azabicyclo[3.1.0]hexane-3-carboxamide], for which the IC50 was less than 1000 nM.
As to `C=CCOCc1ccc(Br)nc1NC(=O)[C@@H]1C[C@@]2(CN(C)CC=C)C[C@H]2N1C(=O)Cn1nc(C(C)=O)c2cc(-c3cnc(C)nc3)ccc21` [Compound 70, (1R,3S,5R)-2-(2-(3-Acetyl-5-(2-methylpyrimidin-5-yl)-1H-indazol-1-yl)acetyl)-5-((allyl(methyl)amino)methyl)-N-(3-((allyloxy)methyl)-6-bromopyridin-2-yl)-2-azabicyclo[3.1.0]hexane-3-carboxamide], the IC50 was less than 1000 nM.
As for `Cc1ncc(-c2ccc3c(c2)c(C(C)O)nn3CC(=O)N2C[C@H]3C[C@H]3[C@H]2C(=O)Nc2nc(Br)ccc2C)cn1` (stereo partly drawn) [Compound 71, (1R,2S,5S)-N-(6-bromo-3-methylpyridin-2-yl)-3-(2-(3-(1-hydroxyethyl)-5-(2-methylpyrimidin-5-yl)-1H-indazol-1-yl)acetyl)-3-azabicyclo[3.1.0]hexane-2-carboxamide], the IC50 was 1000 to 10000 nM.
Turning to `Cc1ncc(-c2ccc3c(c2)c(C(C)O)nn3CC(=O)N2[C@H](C(=O)Nc3nc(Br)ccc3C)C[C@@]3(C)C[C@@H]23)cn1` (stereo partly drawn) [Compound 72, (1R,3S,5R)-N-(6-bromo-3-methylpyridin-2-yl)-2-(2-(3-(1-hydroxyethyl)-5-(2-methylpyrimidin-5-yl)-1H-indazol-1-yl)acetyl)-5-methyl-2-azabicyclo[3.1.0]hexane-3-carboxamide], the 50% inhibitory concentration (IC50) fell in the range of 1000 to 10000 nM.
The result for `CC(=O)c1nn(CC(=O)N2[C@H](C(=O)Nc3nc(Br)cc4ccccc34)C[C@@]3(C)C[C@@H]23)c2ccc(-c3cnc(C)nc3)cc12` [Compound 73, (1R,3S,5R)-2-(2-(3-Acetyl-5-(2-methylpyrimidin-5-yl)-1H-indazol-1-yl)acetyl)-N-(3-bromoisoquinolin-1-yl)-5-methyl-2-azabicyclo[3.1.0]hexane-3-carboxamide] reads less than 1000 nM.
Turning to `CC(=O)c1nn(CC(=O)N2[C@H](C(=O)Nc3nc(Br)ccc3C)C[C@@]3(CN(C)C)C[C@@H]23)c2c(CF)cc(-c3cnc(C)nc3)cc12` [Compound 74, (1R,3S,5R)-2-(2-(3-Acetyl-7-(fluoromethyl)-5-(2-methylpyrimidin-5-yl)-1H-indazol-1-yl)acetyl)-N-(6-bromo-3-methylpyridin-2-yl)-5-((dimethylamino)methyl)-2-azabicyclo[3.1.0]hexane-3-carboxamide], the IC50 is less than 1000 nM.
As for `CC(=O)c1nn(CC(=O)N2[C@H]3C[C@@]3(CN(C)C)C[C@H]2C(=O)Nc2nc(Br)ccc2C)c2c(CF)cc(-c3cnc(C)nc3)cc12` [Compound 75, (1S,3S,5S)-2-(2-(3-Acetyl-7-(fluoromethyl)-5-(2-methylpyrimidin-5-yl)-1H-indazol-1-yl)acetyl)-N-(6-bromo-3-methylpyridin-2-yl)-5-((dimethylamino)methyl)-2-azabicyclo[3.1.0]hexane-3-carboxamide], the figure is less than 1000 nM; as for `CC(=O)c1nn(CC(=O)N2C[C@@](F)(CF)C[C@H]2C(=O)Nc2nc(Br)ccc2C)c2c(CF)cc(-c3cnc(C)nc3)cc12` [Compound 76, (2S,4R)-1-(2-(3-acetyl-7-(fluoromethyl)-5-(2-methylpyrimidin-5-yl)-1H-indazol-1-yl)acetyl)-N-(6-bromo-3-methylpyridin-2-yl)-4-fluoro-4-(fluoromethyl)pyrrolidine-2-carboxamide], less than 1000 nM.
For the compound `CC(=O)c1nn(CC(=O)N2[C@H]3C[C@@]3(C)C[C@H]2C(=O)Nc2nc(Br)ccc2C)c2c(C(F)(F)F)cc(-c3cnc(C)nc3)cc12` [Compound 77, (1S,3S,5S)-2-(2-(3-acetyl-5-(2-methylpyrimidin-5-yl)-7-(trifluoromethyl)-1H-indazol-1-yl)acetyl)-N-(6-bromo-3-methylpyridin-2-yl)-5-methyl-2-azabicyclo[3.1.0]hexane-3-carboxamide], the IC50 is more than 10000 nM.
As for `CC(=O)c1nn(CC(=O)N2[C@H](C(=O)Nc3nc(Br)ccc3C)C[C@@]3(CN4CCN(C(C)=O)CC4)C[C@@H]23)c2ccc(-c3cnc(C)nc3)cc12` [Compound 78, (1R,3S,5R)-2-(2-(3-acetyl-5-(2-methylpyrimidin-5-yl)-1H-indazol-1-yl)acetyl)-5-((4-acetylpiperazin-1-yl)methyl)-N-(6-bromo-3-methylpyridin-2-yl)-2-azabicyclo[3.1.0]hexane-3-carboxamide], the IC50 was less than 1000 nM.
Regarding `CC(=O)c1nn(CC(=O)N2[C@H]3C[C@@]3(CN3CCN(C(C)=O)CC3)C[C@H]2C(=O)Nc2nc(Br)ccc2C)c2ccc(-c3cnc(C)nc3)cc12` [Compound 79, (1S,3S,5S)-2-(2-(3-acetyl-5-(2-methylpyrimidin-5-yl)-1H-indazol-1-yl)acetyl)-5-((4-acetylpiperazin-1-yl)methyl)-N-(6-bromo-3-methylpyridin-2-yl)-2-azabicyclo[3.1.0]hexane-3-carboxamide], the IC50 fell in the range of 1000 to 10000 nM.
